This is an account of results in patent publication US9523100B2, “Pesticidal compositions and related methods” (DOW AGROSCIENCES LLC, priority 2013, dated 2016).

Like-named read-outs stand apart in the source and are kept apart here. Some results are limits rather than exact numbers.

For assay [1], the system named is Sweetpotato Whitefly-Crawler (WF) (Bemisia tabaci) (BEMITA). The experiment in a line: Insecticidal test for Sweetpotato Whitefly-Crawler (WF) in foliar spray assay on cotton plants. It is filed as in vivo. Particulars: 216 h, read-out: WF 200 ppm, % Control (or Mortality) rating. The method in brief:
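Cotton plants carrying 200–400 whitefly eggs sprayed to run-off on both leaf surfaces at 200 ppm (acetone/0.025% Tween 20), four plants per treatment. After 9 days at about 25 °C, live 3rd–4th instar nymphs counted; Abbott-corrected percent control versus solvent check.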

Assay [2] deals with Green Peach Aphid (GPA) (Myzus persicae) (MYZUPE). The experiment in a line: Bioassay for Green Peach Aphid (GPA), foliar spray on cabbage seedlings. It is filed as in vivo. Particulars: 72 h, read-out: GPA 200 ppm, % Control (or Mortality) rating. The procedure, abridged:
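Cabbage seedlings infested with 20-50 GPA (wingless adults and nymphs) one day before spraying to runoff with 200 ppm compound; four pots per treatment. Live aphids counted after three days at ~25° C; percent control by Abbott's correction against solvent-sprayed plants.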

[3] abbreviates: 200 ppm foliar spray on cotton plants, graded after 9 days, Abbott corrected % control.
Setting [4] is: 200 ppm foliar spray on cabbage seedlings, graded after three days, Abbott corrected % control.

In general, mortality refers to the percentage killed. Turning to `CCN(C(=O)CCNC)c1cn(-c2cccnc2)nc1Cl` [Compound C11, N-(3-chloro-1-(pyridin-3-yl)-1H-pyrazol-4-yl)-N-ethyl-3-(methylamino)propanamide], the mortality at 200 ppm is 80 to 100% in assay [1] (setting [3]) and 0 to 80% in assay [2] (setting [4]).
The like results for `CCN(C(=O)CC/C(C)=N/OCc1ccc(C(F)(F)F)nc1)c1cn(-c2cccnc2)nc1Cl` [FA22, (E/Z)-N-(3-Chloro-1-(pyridin-3-yl)-1H-pyrazol-4-yl)-N-ethyl-4-(((6-(trifluoromethyl)pyridin-3-yl)methoxy)imino)pentanamide] were, in that order, 80 to 100% and 0 to 80%.
Turning to `CCN(C(=O)C1CCCN(C(=O)CCC#N)C1)c1cn(-c2cccnc2)nc1Cl` (centres unmarked) [FA44, N-(3-chloro-1-(pyridin-3-yl)-1H-pyrazol-4-yl)-1-(3-cyanopropanoyl)-N-ethylpiperidine-3-carboxamide], the mortality at 200 ppm in assay [1] (setting [3]) and in assay [2] (setting [4]) was 80 to 100% in each case.
Regarding `CN(C(=O)CN1CCCCC1=O)c1cn(-c2cccnc2)nc1Cl` [Compound F77, N-(3-Chloro-1-(pyridin-3-yl)-1H-pyrazol-4-yl)-N-methyl-2-(2-oxopiperidin-1-yl)acetamide], the mortality at 200 ppm in assay [1] (setting [3]) and in assay [2] (setting [4]) was 80 to 100% in each case.
`CCN(C(=O)CC/C(=N\OCC1CC(F)(F)C1)c1cccs1)c1cn(-c2cccnc2)nc1Cl` [FA30, (E)-N-(3-Chloro-1-(pyridin-3-yl)-1H-pyrazol-4-yl)-4-(((3,3-difluorocyclobutyl)methoxy)imino)-N-ethyl-4-(thiophen-2-yl)butanamide]: the mortality at 200 ppm was 0 to 80% in assay [1] (setting [3]) and below 0% in assay [2] (setting [4]).
With `CCN(C(=O)C(C)OC(=O)N(C)C)c1cn(-c2cccnc2)nc1Cl` (centres unmarked) [Compound F93, 1-((3-chloro-1-(pyridin-3-yl)-1H-pyrazol-4-yl)(ethyl)amino)-1-oxopropan-2-yl dimethylcarbamate], the mortality at 200 ppm in assay [1] (foliar) and in assay [2] (foliar) was 80 to 100% throughout.
Consider `CCN(C(=O)CN(C)C(=O)CC(F)(F)F)c1cn(-c2cccnc2)nc1Cl` [Compound F120, N-(2-((3-Chloro-1-(pyridin-3-yl)-1H-pyrazol-4-yl)(ethyl)amino)-2-oxoethyl)-3,3,3-trifluoro-N-methylpropanamide], for which the mortality at 200 ppm in assay [1] (setting [3]) and in assay [2] (setting [4]) was 80 to 100% throughout.
Consider `CCN(C(=O)C(C)C/C=N\OCCC1CC1(F)F)c1cn(-c2cccnc2)nc1Cl` (centres unmarked) [FA59, (Z)-N-(3-Chloro-1-(pyridin-3-yl)-1H-pyrazol-4-yl)-4-((2-(2,2-difluorocyclopropyl)ethoxy)imino)-N-ethyl-2-methylbutanamide], for which the mortality at 200 ppm in assay [1] (setting [3]) and in assay [2] (setting [4]) was 80 to 100% in each case.
For `CCN(C(=O)C1CCN(C(=O)CCC#N)C1)c1cn(-c2cccnc2)nc1Cl` (centres unmarked) [FA11, N-(3-Chloro-1-(pyridin-3-yl)-1H-pyrazol-4-yl)-1-(3-cyanopropanoyl)-N-ethylpyrrolidine-3-carboxamide], the mortality at 200 ppm in assay [1] (setting [3]) and in assay [2] (setting [4]) was 80 to 100% throughout.
Take `CCN(C(=O)C1CCC(=O)C1)c1cn(-c2cncc(F)c2)nc1C` (centres unmarked) [FA71, N-Ethyl-N-(1-(5-fluoropyridin-3-yl)-3-methyl-1H-pyrazol-4-yl)-3-oxocyclopentanecarboxamide]: the mortality at 200 ppm in assay [1] (setting [3]) and in assay [2] (setting [4]) was 0 to 80% throughout.
Take `CCN(C(=O)CN1CCOC1=O)c1cn(-c2cccnc2)nc1Cl` [Compound F48, N-(3-Chloro-1-(pyridin-3-yl)-1H-pyrazol-4-yl)-N-ethyl-2-(2-oxooxazolidin-3-yl)acetamide]: the mortality at 200 ppm in assay [1] (setting [3]) and in assay [2] (setting [4]) was 80 to 100% throughout.
For the compound `O=C(CCC(=O)N(CC1CC1)c1cn(-c2cccnc2)nc1Cl)N1CCCCCC1` [Compound F18, 4-(Azepan-1-yl)-N-(3-chloro-1-(pyridin-3-yl)-1H-pyrazol-4-yl)-N-(cyclopropylmethyl)-4-oxobutanamide], the results for the mortality at 200 ppm in assay [1] (setting [3]) and in assay [2] (setting [4]) were 80 to 100% and 0 to 80%, respectively.
In the case of `CCN(C(=O)CCC(=O)N(C)CCC(F)(F)F)c1cn(-c2cccnc2)nc1Cl` [Compound F108, N1-(3-chloro-1-(pyridin-3-yl)-1H-pyrazol-4-yl)-N1-ethyl-N4-methyl-N4-(3,3,3-trifluoropropyl)succinamide], the mortality at 200 ppm in assay [1] (setting [3]) and in assay [2] (setting [4]) was 80 to 100% each time.
Regarding `CCN(C(=O)C1CN(C(=O)c2cccnc2)C1)c1cn(-c2cccnc2)nc1Cl` [FA17, N-(3-Chloro-1-(pyridin-3-yl)-1H-pyrazol-4-yl)-N-ethyl-1-nicotinoyl azetidine-3-carboxamide], the mortality at 200 ppm in assay [1] (setting [3]) and in assay [2] (setting [4]) was 0 to 80% throughout.
On to `CCN(C(=O)CCN(CC(F)F)C(=O)C1(C)CC1(F)F)c1cn(-c2cccnc2)nc1Cl` (centres unmarked) [Compound F35, N-(3-((3-Chloro-1-(pyridin-3-yl)-1H-pyrazol-4-yl)(ethyl)amino)-3-oxopropyl)-N-(2,2-difluoroethyl)-2,2-difluoro-1-methylcyclopropane carboxamide], for which the mortality at 200 ppm in assay [1] (setting [3]) and in assay [2] (setting [4]) was 80 to 100% throughout.
As for `CCN(C(=O)CCC(=O)N(C)CC#N)c1cn(-c2cccnc2)nc1Cl` [Compound F55, N1-(3-Chloro-1-(pyridin-3-yl)-1H-pyrazol-4-yl)-N4-(cyanomethyl)-N1-ethyl-N4-methylsuccinamide], the mortality at 200 ppm in assay [1] (setting [3]) is 80 to 100%; in assay [2] (setting [4]), 0 to 80%.
On to `CCN(C(=O)CC/C(=N\OCCCC(F)(F)F)c1cccs1)c1cn(-c2cccnc2)nc1Cl` [FA26, (E)-N-(3-Chloro-1-(pyridin-3-yl)-1H-pyrazol-4-yl)-N-ethyl-4-(thiophen-2-yl)-4-((4,4,4-trifluorobutoxy)imino)butanamide], for which the values for the mortality at 200 ppm in assay [1] (setting [3]) and in assay [2] (setting [4]) were 80 to 100% and 0 to 80%, respectively.
`CCN(C(=O)C1CCCN(C(=O)C(F)(F)F)C1)c1cn(-c2cccnc2)nc1Cl` (centres unmarked) [FA41, N-(3-Chloro-1-(pyridin-3-yl)-1H-pyrazol-4-yl)-N-ethyl-1-(2,2,2-trifluoroacetyl)piperidine-3-carboxamide]: the mortality at 200 ppm in assay [1] (setting [3]) was 0 to 80%; in assay [2] (setting [4]), 80 to 100%.
`CN(C(=O)CCC(=O)N1CCCCC1)c1cn(-c2cccnc2)nc1Cl` [Compound F33, N-(3-Chloro-1-(pyridin-3-yl)-1H-pyrazol-4-yl)-N-methyl-4-oxo-4-(piperidin-1-yl)butanamide]: the mortality at 200 ppm lay within 80 to 100% in assay [1] (setting [3]) and 0 to 80% in assay [2] (setting [4]).
Take `CC(=O)N[C@H]1C=C[C@@H](C(=O)N(C)c2cn(-c3cccnc3)nc2Cl)C1` [Compound F24, (1S,4R)-4-acetamido-N-(3-chloro-1-(pyridin-3-yl)-1H-pyrazol-4-yl)-N-methyl-cyclopent-2-enecarboxamide]: the mortality at 200 ppm in assay [1] (setting [3]) and in assay [2] (setting [4]) was 80 to 100% each time.
As to `CCN(C(=O)CCC(=O)NC1CC1C(F)(F)F)c1cn(-c2cccnc2)nc1Cl` (centres unmarked) [Compound F54, N1-(3-Chloro-1-(pyridin-3-yl)-1H-pyrazol-4-yl)-N1-ethyl-N4-(2-(trifluoromethyl)cyclopropyl) succinamide], the mortality at 200 ppm in assay [1] (setting [3]) and in assay [2] (setting [4]) was 80 to 100% throughout.
As for `CCN(C(=O)CC/C(C)=N/OCCCCF)c1cn(-c2cccnc2)nc1Cl` [FA20, (E/Z)-N-(3-chloro-1-(pyridin-3-yl)-1H-pyrazol-4-yl)-N-ethyl-4-((4-fluorobutoxy)imino)pentanamide], the mortality at 200 ppm in assay [1] (setting [3]) and in assay [2] (setting [4]) was 80 to 100% each time.
As for `CCN(C(=O)C1CCCCN1C(C)=O)c1cn(-c2cccnc2)nc1Cl` (centres unmarked) [FA32, 1-Acetyl-N-(3-chloro-1-(pyridin-3-yl)-1H-pyrazol-4-yl)-N-ethylpiperidine-2-carboxamide], the mortality at 200 ppm in assay [1] (setting [3]) and in assay [2] (setting [4]) was 0 to 80% each time.
Consider `CCN(C(=O)CCNC(=O)Cc1ccc(F)cc1)c1cn(-c2cccnc2)nc1Cl` [Compound F46, N-(3-Chloro-1-(pyridin-3-yl)-1H-pyrazol-4-yl)-N-ethyl-3-(2-(4-fluorophenyl)acetamido) propanamide], for which the mortality at 200 ppm fell in the range of 80 to 100% in assay [1] (setting [3]) and 0 to 80% in assay [2] (setting [4]).
For the compound `CCN(C(=O)CC1CCNC1=O)c1cn(-c2cccnc2)nc1Cl` (centres unmarked) [FA63], the mortality at 200 ppm in assay [1] (setting [3]) and in assay [2] (setting [4]) was 80 to 100% throughout.
For the compound `CCN(C(=O)CCC(=O)O)c1cn(-c2cccnc2)nc1Cl` [Compound C1, 4-((3-chloro-1-(pyridin-3-yl)-1H-pyrazol-4-yl)(ethyl)amino)-4-oxobutanoic acid], the figures for the mortality at 200 ppm in assay [1] (setting [3]) and in assay [2] (setting [4]) were 0 to 80% and below 0%, respectively.
`CCN(C(=O)C1CCN(C(=O)CC(F)(F)F)C1)c1cn(-c2cccnc2)nc1Cl` (centres unmarked) [Compound P21, N-(3-Chloro-1-(pyridin-3-yl)-1H-pyrazol-4-yl)-N-ethyl-1-(3,3,3-trifluoropropanoyl)pyrrolidine-3-carboxamide]: the mortality at 200 ppm in assay [1] (setting [3]) was in the range of 0 to 80%; in assay [2] (setting [4]), 80 to 100%.
As to `CCN(C(=O)CNC(=O)C1(C)CC1(F)F)c1cn(-c2cccnc2)nc1Cl` (centres unmarked) [Compound F1, N-(2-((3-Chloro-1-(pyridin-3-yl)-1H-pyrazol-4-yl)(ethyl)amino)-2-oxoethyl)-2,2-difluoro-1-methylcyclopropanecarboxamide], the mortality at 200 ppm in assay [1] (setting [3]) and in assay [2] (setting [4]) was 80 to 100% each time.
